Bridge positions count the residues as written; N and C are the ends. Ends that are not written are not given here.

The text below walks through data of paper PMC10342134, “Isolation and Characterization of Poeciguamerin, a Peptide with Dual Analgesic and Anti-Thrombotic Activity from the Poecilobdella manillensis Leech” (International Journal of Molecular Sciences, 2023).

Test [1] relates to mice. The test is described as follows: Tail withdrawal mouse model (hot water bath). To be noted: poeciguamerin 0, 6, 12 mg/kg, tail vein; water 45 °C; maximum time 15 s; n = 5 per group. Format: in vivo, mouse (female C57BL/6J). How it is done: (§1) To evaluate the biological activity of poeciguamerin, we used the foot-licking mouse model and the tail-withdrawal mouse model. In the foot-licking mouse model, we placed the mice in a hot plate apparatus at a temperature of 55 ± 0.5 °C. The pain thresholds of the mice were measured twice every 15 min and hind paw licking was used as the observation parameter. Female mice showing a pain response within 10–30 s were selected and randomly divided into four groups. In the control group, 25 μL elastase (6 mg/kg) was injected into the base of the right hind paw, while in the experimental group, poeciguamerin (0, 6, 12 mg/kg) was injected intravenously 10 min before the elastase injection. […] The cumulative number of foot licks during the first phase (0–10 min) (Figure 5A) and the second phase (10–30 min) (Figure 5B) was recorded. […] The tails of the mice were stretched in hot water at 45 °C and the time of tail flicking was recorded.
(§2) Figure 5 Effects of poeciguamerin on elastase or hot water bath-induced pain. […] The total time mice spent licking the paw was recorded during the I phase (0–10 min) (A) and the II phase (10–30 min) (B). n = 5 per group. Data are expressed as mean ± SEM and were subjected to an unpaired t-test, *** p < 0.001. […] The tails of the mice were stretched in hot water at 45 °C and the time of the tail flick was recorded (C). n = 5 per group. […]

The next test deals with FXa. The test is described as follows: Effect on FXa activity (chromogenic substrate assay). Format: biochemical. The conditions noted are these: natural poeciguamerin 0-40 μM; FXa 20 nM; S-2222 0.2 mM; 50 mM Tris-HCl pH 7.4; 5 min, room temperature; OD405 for 10 min. As for the experimental part: (§3) Figure 3 Effects of poeciguamerin on elastase and coagulation. Effects of natural poeciguamerin on elastase (A), FXIIa (B), kallikrein (C), FXa (D), trypsin (E), and thrombin (F) enzymatic activities.
(§4) We mixed poeciguamerin with specific chromogenic substrates and proteases to evaluate the effect of poeciguamerin on various enzymatic activities. These enzymes and substrates included FXIIa (10 nM, 1212a, Enzyme Research Laboratories, South Bend, IN, USA; substrate: 0.2 mM, S-2302, Chromogenix, Milan, Italy), kallikrein (80 nM, 1303, Enzyme Research Laboratories, South Bend, IN, USA; substrate: 0.2 mM, S-2302, Chromogenix, Milan, Italy), trypsin (0.8 μM, T2600000, Sigma-Aldrich, St. Louis, MO, USA; substrate: 0.2 mM, S-2222, Chromogenix, Milan, Italy), thrombin (10 nM, 1002a, Enzyme Research Laboratories, South Bend, IN, USA; substrate: 0.2 mM, S-2238, Chromogenix, Milan, Italy), FXa (20 nM, 1011, Enzyme Research Laboratories, South Bend, IN, USA; substrate: 0.2 mM, S-2222, Chromogenix, Milan, Italy), elastase (0.4 μM, E8140, Sigma-Aldrich, St. Louis, MO, USA; substrate: 0.2 mM, 324696, Sigma-Aldrich, St. Louis, MO, USA), and other proteases were affected. […] Using an enzyme marker, GEN CHS v1.09 software detected OD405 at 30-s intervals and recorded for 10 min to calculate enzyme kinetics.

For test [2], the system named is mice. The test can be described thus: Foot-licking mouse model (elastase-induced pain). Format: in vivo, mouse (female C57BL/6J). To be noted: poeciguamerin 0, 6, 12 mg/kg i.v. 10 min before 25 μL elastase (6 mg/kg) in right hind paw; phase I 0–10 min and phase II 10–30 min; n = 5 per group. How it is done: as §1, §2
The next test concerns the target T1, elastase (Homo sapiens, UniProt P08246).
T1 construct: purchased Sigma-Aldrich E8140
T1 sequence (P08246 30-267): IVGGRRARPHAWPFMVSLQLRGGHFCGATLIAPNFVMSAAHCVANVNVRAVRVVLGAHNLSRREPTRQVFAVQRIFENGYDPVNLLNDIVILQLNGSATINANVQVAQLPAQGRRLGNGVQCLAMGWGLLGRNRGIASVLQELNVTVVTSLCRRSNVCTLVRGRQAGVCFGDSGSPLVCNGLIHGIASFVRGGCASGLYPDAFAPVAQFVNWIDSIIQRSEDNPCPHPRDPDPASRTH
The test can be described thus: Effect on elastase activity (chromogenic substrate assay; Dixon plot Ki). Format: biochemical.
From the text: (§5) Thus, we examined the effects of poeciguamerin on proteases such as FXIIa, kallikrein, trypsin, thrombin, FXa, and elastase using appropriate chromogenic substrates.
as §3
(§6) We mixed poeciguamerin with specific chromogenic substrates and proteases to evaluate the effect of poeciguamerin on various enzymatic activities. […] The proteases and different concentrations of natural poeciguamerin (0, 0.5, 1, 2, 10, 20, 40 μM) were incubated in a total volume of 60 μL in buffer (50 mM Tris-HCl pH 7.4) for 5 min at room temperature. Subsequently, a buffer containing the appropriate enzyme substrate was added to a total volume of 100 μL. Using an enzyme marker, GEN CHS v1.09 software detected OD405 at 30-s intervals and recorded for 10 min to calculate enzyme kinetics.

In a further test the target is T2, kallikrein (Homo sapiens, UniProt P03952).
T2 construct: purchased Enzyme Research Laboratories 1303
The test is described as follows: Effect on kallikrein activity (chromogenic substrate assay; Dixon plot Ki). It counts as biochemical. To be noted: natural poeciguamerin 0-40 μM; kallikrein 80 nM; S-2302 0.2 mM; 50 mM Tris-HCl pH 7.4; 5 min, room temperature; OD405 for 10 min.
From the text: as §5, §3, §6

The subject of the next test is thrombin. The test can be described thus: Effect on thrombin activity (chromogenic substrate assay). It counts as biochemical. To be noted: natural poeciguamerin 0-40 μM; thrombin 10 nM; S-2238 0.2 mM; 50 mM Tris-HCl pH 7.4; 5 min, room temperature; OD405 for 10 min. As for the experimental part: as §3, §4
A further test concerns trypsin. The test is described as follows: Effect on trypsin activity (chromogenic substrate assay). It counts as biochemical. To be noted: natural poeciguamerin 0-40 μM; trypsin 0.8 μM; S-2222 0.2 mM; 50 mM Tris-HCl pH 7.4; 5 min, room temperature; OD405 for 10 min. As for the experimental part:
as §3, §4

In the next test the target is T3, FXIIa (Homo sapiens, UniProt P00748).
T3 construct: purchased Enzyme Research Laboratories 1212a
T3 sequence (P00748 373-615 limits assumed): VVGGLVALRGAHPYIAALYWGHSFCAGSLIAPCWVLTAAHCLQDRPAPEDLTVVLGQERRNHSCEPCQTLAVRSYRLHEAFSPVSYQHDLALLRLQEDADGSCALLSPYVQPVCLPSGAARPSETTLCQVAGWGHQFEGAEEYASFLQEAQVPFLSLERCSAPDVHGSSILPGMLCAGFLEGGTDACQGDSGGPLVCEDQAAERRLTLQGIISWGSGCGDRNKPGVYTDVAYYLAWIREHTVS
T3 sequence (P00748 20-372 partner limits assumed): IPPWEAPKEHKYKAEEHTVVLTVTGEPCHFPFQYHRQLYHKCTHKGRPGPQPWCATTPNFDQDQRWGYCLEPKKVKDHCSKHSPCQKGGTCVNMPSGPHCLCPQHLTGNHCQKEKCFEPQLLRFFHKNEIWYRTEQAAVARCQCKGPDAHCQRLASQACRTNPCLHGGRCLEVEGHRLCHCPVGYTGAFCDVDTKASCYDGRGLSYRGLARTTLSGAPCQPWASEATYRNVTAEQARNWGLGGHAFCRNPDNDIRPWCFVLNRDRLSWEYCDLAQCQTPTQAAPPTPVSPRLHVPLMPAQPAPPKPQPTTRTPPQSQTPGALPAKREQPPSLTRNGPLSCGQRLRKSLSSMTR
The test can be described thus: Effect on FXIIa activity (chromogenic substrate assay; Dixon plot Ki). Format: biochemical. To be noted: natural poeciguamerin 0-40 μM; FXIIa 10 nM; S-2302 0.2 mM; 50 mM Tris-HCl pH 7.4; 5 min, room temperature; OD405 for 10 min.
From the text: as §5, §3, §6

T2 sequence (P03952 391-638 limits assumed): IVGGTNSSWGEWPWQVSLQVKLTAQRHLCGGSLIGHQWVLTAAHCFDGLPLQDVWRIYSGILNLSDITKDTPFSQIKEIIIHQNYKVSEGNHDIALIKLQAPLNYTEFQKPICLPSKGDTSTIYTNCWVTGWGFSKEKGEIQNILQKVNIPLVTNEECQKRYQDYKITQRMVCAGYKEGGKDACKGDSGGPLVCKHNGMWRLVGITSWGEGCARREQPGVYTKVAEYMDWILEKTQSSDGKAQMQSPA
T2 sequence (P03952 20-390 partner limits assumed): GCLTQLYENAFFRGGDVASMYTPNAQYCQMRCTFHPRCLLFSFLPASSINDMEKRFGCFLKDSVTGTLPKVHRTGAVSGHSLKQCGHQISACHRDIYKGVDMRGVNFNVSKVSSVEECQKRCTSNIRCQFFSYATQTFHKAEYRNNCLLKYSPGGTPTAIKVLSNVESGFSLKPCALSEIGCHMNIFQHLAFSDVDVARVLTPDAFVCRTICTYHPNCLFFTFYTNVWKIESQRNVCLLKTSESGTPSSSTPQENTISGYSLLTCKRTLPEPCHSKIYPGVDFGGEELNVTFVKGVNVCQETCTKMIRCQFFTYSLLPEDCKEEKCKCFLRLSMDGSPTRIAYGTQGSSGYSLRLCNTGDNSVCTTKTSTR

Regarding “VDEKAEVTDDLCGDKTCSGAQVCQNDACVCSPVRCMIMCPNGFKLDENGCEYPCSCA (disulfide 12-23, 17-28, 30-50, 35-54, 39-56) [poeciguamerin]”, the “effect on hot water-induced pain response (tail withdrawal latency)” value with mice [1] was “attenuated this pain response”. Besides, in the test with FXa, the “effect on FXa activity” value is “no inhibitory effects”. Moreover, the “effect on elastase-induced pain (cumulative foot licks)” value in the test with mice [2] is “attenuated this painful response”. Further, the “effect on elastase activity” value at elastase (natural poeciguamerin 0-40 μM, elastase 0.4 μM, substrate 324696 0.2 mM, 50 mM Tris-HCl pH 7.4, 5 min, room temperature, OD405 for 10 min) was “dose-dependent inhibition”. Further, the “inhibition of elastase activity by chromatographic peak fractions” value against elastase (peak fractions of P. manillensis salivary gland secretions (Sephadex G-50, RP-HPLC C8, Mono S FPLC), elastase chromogenic substrate assay) was “significantly inhibited elastase activity”. In addition, on kallikrein, the “effect on kallikrein activity” value is given as “slight inhibition”. Further, the “effect on thrombin activity” value in the test with thrombin is given as “no inhibitory effects”. The “effect on trypsin activity” value with trypsin is listed as “no inhibitory effects”. Besides, the “effect on FXIIa activity” value on FXIIa is reported as “slight inhibition”.
